According to ChEMBL document CHEMBL1145322, “Synthesis and anthelmintic activity of substituted (R)-phenyllactic acid containing cyclohexadepsipeptides” (Bioorg Med Chem Lett, 2006):

Columns and labels:
Haemonchus contortus [1] = experiment: Anthelmintic activity against Haemonchus contortus in infected sheep assessed as reduction in faecal egg at 0.05 mg/kg, po; format: functional, Feces; design: scale not given: the % may be the effect or the level left
[2] = Partition coefficient, log P of the compound; format: physicochemical; settings: octanol/water
Haemonchus contortus [3] = experiment: Anthelmintic activity against Haemonchus contortus in infected sheep assessed as reduction in faecal egg at 0.10 mg/kg, po; format: functional, Feces; design: scale not given: the % may be the effect or the level left; settings: dose 0.1 mg/kg
Haemonchus contortus [4] = experiment: Anthelmintic activity against Haemonchus contortus in infected sheep assessed as reduction in faecal egg at 0.25 mg/kg, po; format: functional, Feces; design: scale not given: the % may be the effect or the level left

| Compound | Activity (Haemonchus contortus [1]) | logP [2] | Activity (Haemonchus contortus [3]) | Activity (Haemonchus contortus [4]) |
| --- | --- | --- | --- | --- |
| CCC(C)[C@H]1C(=O)O[C@H](C)C(=O)N(C)[C@@H](C)C(=O)O[C@H](C)C(=O)N(C)[C@@H](C(C)CC)C(=O)O[C@H](C)C(=O)N1C (stereo partly drawn) | >=95% | 3.26 |  |  |
| CC[C@@H](C)[C@H]1C(=O)O[C@H](Cc2ccccc2N)C(=O)N(C)[C@@H]([C@H](C)CC)C(=O)O[C@H](C)C(=O)N(C)[C@@H](C)C(=O)O[C@H](C)C(=O)N1C | >=95% | 3.18 |  |  |
| CC[C@@H](C)[C@H]1C(=O)O[C@H](Cc2ccc(N3CCOCC3)cc2)C(=O)N(C)[C@@H]([C@H](C)CC)C(=O)O[C@H](C)C(=O)N(C)[C@@H](C)C(=O)O[C@H](C)C(=O)N1C |  | 3.58 | >=95% |  |
| CC[C@@H](C)[C@H]1C(=O)O[C@H](Cc2cccc(N)c2)C(=O)N(C)[C@@H]([C@H](C)CC)C(=O)O[C@H](C)C(=O)N(C)[C@@H](C)C(=O)O[C@H](C)C(=O)N1C | >=95% | 2.35 |  |  |
| CC[C@@H](C)[C@H]1C(=O)O[C@H](Cc2ccc(N)cc2)C(=O)N(C)[C@@H]([C@H](C)CC)C(=O)O[C@H](C)C(=O)N(C)[C@@H](C)C(=O)O[C@H](C)C(=O)N1C |  | 2.08 | 50% |  |
| CC[C@@H](C)[C@H]1C(=O)O[C@H](Cc2ccccc2)C(=O)N(C)[C@@H]([C@H](C)CC)C(=O)O[C@H](C)C(=O)N(C)[C@@H](C)C(=O)O[C@H](C)C(=O)N1C |  | 4.23 |  | <=50% |
| CC[C@@H](C)[C@H]1C(=O)O[C@H](Cc2ccc([N+](=O)[O-])cc2)C(=O)N(C)[C@@H]([C@H](C)CC)C(=O)O[C@H](C)C(=O)N(C)[C@@H](C)C(=O)O[C@H](C)C(=O)N1C |  |  | 50% |  |
